Tests used:
α3 GlyR (homomeric) = biological target: T1, α3 GlyR (homomeric) (Rattus norvegicus, UniProt P24524); experiment: whole-cell patch clamp, direct activation; assay type: cell-based; conditions: no glycine added; agonist; residual glycine not excluded
T1 sequence (P24524 34-464): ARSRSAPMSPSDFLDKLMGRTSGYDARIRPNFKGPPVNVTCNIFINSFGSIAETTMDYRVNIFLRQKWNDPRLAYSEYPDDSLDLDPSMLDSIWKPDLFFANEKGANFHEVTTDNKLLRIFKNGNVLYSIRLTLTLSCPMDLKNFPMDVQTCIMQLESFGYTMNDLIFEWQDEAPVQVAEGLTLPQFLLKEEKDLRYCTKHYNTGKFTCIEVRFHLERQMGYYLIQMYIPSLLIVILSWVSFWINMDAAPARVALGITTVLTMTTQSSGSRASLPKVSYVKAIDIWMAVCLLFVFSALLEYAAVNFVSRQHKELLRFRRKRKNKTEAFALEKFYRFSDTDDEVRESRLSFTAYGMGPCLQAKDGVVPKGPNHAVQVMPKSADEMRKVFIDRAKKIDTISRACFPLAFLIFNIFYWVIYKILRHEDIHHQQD

α1 GlyR (homomeric) = biological target: T2, α1 GlyR (homomeric) (Rattus norvegicus, UniProt Q546L7); experiment: whole-cell patch clamp, direct activation; assay type: cell-based; conditions: no glycine added; agonist; residual glycine not excluded
T2 sequence (Q546L7 29-449): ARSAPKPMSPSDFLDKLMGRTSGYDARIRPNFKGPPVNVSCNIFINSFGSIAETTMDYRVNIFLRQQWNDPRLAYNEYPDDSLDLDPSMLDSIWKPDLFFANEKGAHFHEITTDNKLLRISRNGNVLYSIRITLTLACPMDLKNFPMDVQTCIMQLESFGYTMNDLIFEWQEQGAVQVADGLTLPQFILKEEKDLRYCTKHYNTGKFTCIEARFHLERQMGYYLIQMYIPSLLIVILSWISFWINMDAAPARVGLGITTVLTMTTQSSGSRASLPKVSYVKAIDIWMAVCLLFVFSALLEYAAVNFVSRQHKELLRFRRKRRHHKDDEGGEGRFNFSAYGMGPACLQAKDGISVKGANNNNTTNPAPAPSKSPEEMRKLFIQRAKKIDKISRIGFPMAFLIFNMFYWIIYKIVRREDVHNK

% of maximal glycine current at 100 μM (α3 GlyR (homomeric)): ~ 15%
% of maximal glycine current at 100 μM (α1 GlyR (homomeric)): > 20%
Substance: AM-1488
